The subject of data set [1] is Staphylococcus aureus ATCC 6738P. The data set is described as follows: agar-plate disc-diffusion test. To be noted: suspended in water at 1 mg/ml; 7 mm disc; 24-48 hours at 25-37° C. Format: cell-based. A general note: Agar diffusion results depend on both activity and mobility in agar.
The subject of data set [2] is Micrococcus luteus ATCC 9341. Briefly: agar-plate disc-diffusion test. It counts as cell-based. To be noted: suspended in water at 1 mg/ml; 7 mm disc; 24-48 hours at 25-37° C.
Data set [3] has as its system Staphylococcus aureus X1.1. It counts as cell-based. To be noted: agar dilution; 2, 5, 17, 22 median of three tests; paired values two experiments. For orientation: Agar dilution tests growth on a series of plates holding different concentrations.
The subject of data set [4] is Staphylococcus aureus V41. It counts as cell-based. Particulars: penicillin-resistant strain; agar dilution; 2, 5, 17, 22 median of three tests; paired values two experiments.
For data set [5], the system named is Staphylococcus aureus X400. It counts as cell-based. Particulars: methicillin-resistant strain; agar dilution; 2, 5, 17, 22 median of three tests; paired values two experiments.
The subject of data set [6] is Staphylococcus epidermidis EPI1. Format: cell-based. To be noted: agar dilution; 2, 5, 17, 22 median of three tests; paired values two experiments.
The subject of data set [7] is Staphylococcus epidermidis EPI2. It counts as cell-based. To be noted: agar dilution; 2, 5, 17, 22 median of three tests; paired values two experiments.
The subject of data set [8] is Streptococcus pyogenes C203. Format: cell-based. To be noted: agar dilution; 2, 5, 17, 22 median of three tests; paired values two experiments.
The test system of data set [9] is Streptococcus pneumoniae Park I. It counts as cell-based. To be noted: agar dilution; 2, 5, 17, 22 median of three tests; paired values two experiments.
The test system of data set [10] is Streptococcus pneumoniae Group D X66. It counts as cell-based. Particulars: agar dilution; 2, 5, 17, 22 median of three tests; paired values two experiments.
The test system of a further data set is Streptococcus Group 9960. It counts as cell-based, Streptococcus pneumoniae. Particulars: agar dilution; 2, 5, 17, 22 median of three tests; paired values two experiments.
The test system of a further data set is Staphylococcus aureus. Briefly: in vivo activity against experimental bacterial infection (ED50). To be noted: mice; two doses subcutaneously; dose protecting fifty percent of test animals.
Another data set is described as follows: toxicity test (LD50). Particulars: mouse, in vivo, iv, mice; administered intravenously.
Data set [11] deals with Bacillus subtilis ATCC 6633. Briefly: agar-plate disc-diffusion test. To be noted: 7 mm disc, 24-48 hours at 25-37° C.; for Size of Zone of Inhibition (mm) B. subtilis ATCC 6633, grown on minimal nutrient agar: 1 mg/ml; for Size of Zone of Inhibition (mm) Bacillus subtilis ATCC 6633: suspended in water at 1 mg/ml.
Protocol: ^a Compounds were suspended in water at a concentration of 1 mg/ml; a
7 mm disc was dipped into the suspension and then placed on the agar
surface; incubation: 24-48 hours at 25-37° C.
^b Grown on minimal nutrient agar
The next data set deals with Streptococcus pyogenes. Briefly: in vivo activity against experimental bacterial infection (ED50). Particulars: mice, dose protecting fifty percent of test animals; for ED50 Streptococcus pyogenes Oral: two doses orally.

Values after ≈ are worked out from the molar mass of the structure shown. Values joined by “and” are separate entries in the source; they are usually repeats but may differ in a detail not shown here. Identical values can stand only once.

Take `CCCCCCC(=O)N[C@@H](Cc1c[nH]c2ccccc12)C(=O)N[C@@H](CC(N)=O)C(=O)N[C@@H](CC(=O)O)C(=O)N[C@@H]1C(=O)NCC(=O)N[C@@H](CCCN)C(=O)N[C@@H](CC(=O)O)C(=O)N[C@H](C)C(=O)N[C@@H](CC(=O)O)C(=O)NCC(=O)N[C@H](CO)C(=O)N[C@@H]([C@H](C)CC(=O)O)C(=O)N[C@@H](CC(=O)c2ccccc2N)C(=O)O[C@@H]1C` [Compound 1]: in [1], the “Size of Zone of Inhibition (mm) Staphylococcus aureus ATCC 6738P” value was 17 mm. In addition, the “Size of Zone of Inhibition (mm) Micrococcus luteus ATCC 9341” value in [2] is on record as 21 mm. In [3], the “MIC Staphylococcus aureus X1.1” value is 8 µg/mL (≈ 5.07 µM). The “MIC Staphylococcus aureus V41” value in data set [4] came to 8 µg/mL (≈ 5.07 µM). Besides, the “MIC Staphylococcus aureus X400” value in [5] came to 8 µg/mL (≈ 5.07 µM). Besides, the “MIC Staphylococcus epidermidis EPI1” value in data set [6] amounted to 16 µg/mL (≈ 10.1 µM). Also, the “MIC Staphylococcus epidermidis EPI2” value in [7] came out at 8 µg/mL (≈ 5.07 µM). For the same compound, the “MIC Streptococcus pyogenes C203” value in [8] worked out at 2 µg/mL (≈ 1.27 µM). Also, the “MIC Streptococcus pneumoniae Park I” value in [9] was 8 µg/mL (≈ 5.07 µM). Also, the “MIC Streptococcus pneumoniae Group D X66” value in data set [10] is 128 µg/mL (≈ 81.1 µM). The “MIC Streptococcus pneumoniae Group 9960” value in the data set on Streptococcus Group 9960 was determined as 128 µg/mL (≈ 81.1 µM). The “ED50 Staphylococcus aureus Subcutaneous” value with Staphylococcus aureus was 2.65 mg/kg × 2. The LD50 in “toxicity test (LD50)” was greater than 600 mg/kg. Also, in data set [11], the “Size of Zone of Inhibition (mm) B. subtilis ATCC 6633, grown on minimal nutrient agar” value stood at 16 mm and the “Size of Zone of Inhibition (mm) Bacillus subtilis ATCC 6633” value is 15 mm.
On to `CCCCCCCCCCCC(=O)N[C@@H](Cc1c[nH]c2ccccc12)C(=O)N[C@@H](CC(N)=O)C(=O)N[C@@H](CC(=O)O)C(=O)N[C@@H]1C(=O)NCC(=O)N[C@@H](CCCN)C(=O)N[C@@H](CC(=O)O)C(=O)N[C@H](C)C(=O)N[C@@H](CC(=O)O)C(=O)NCC(=O)N[C@H](CO)C(=O)N[C@@H]([C@H](C)CC(=O)O)C(=O)N[C@@H](CC(=O)c2ccccc2N)C(=O)O[C@@H]1C` [Compound 6], for which the “Size of Zone of Inhibition (mm) Staphylococcus aureus ATCC 6738P” value in [1] came out at 25 mm. The “Size of Zone of Inhibition (mm) Micrococcus luteus ATCC 9341” value in data set [2] came to 19 mm. The “MIC Staphylococcus epidermidis EPI1” value in [6] amounted to 1 µg/mL (≈ 0.607 µM). For the same compound, in data set [7], the “MIC Staphylococcus epidermidis EPI2” value stood at 1 µg/mL (≈ 0.607 µM). Also, the “MIC Streptococcus pyogenes C203” value in data set [8] is 0.125 µg/mL and 0.25 µg/mL. In addition, the “MIC Streptococcus pneumoniae Park I” value in [9] stood at 0.25 µg/mL (≈ 0.152 µM). For the same compound, the “MIC Streptococcus pneumoniae Group D X66” value in [10] turned out to be 2 µg/mL (≈ 1.21 µM). For the same compound, the “MIC Streptococcus pneumoniae Group 9960” value in the data set with Streptococcus Group 9960 is 0.5 µg/mL (≈ 0.303 µM). The “ED50 Staphylococcus aureus Subcutaneous” value in the data set with Staphylococcus aureus is on record as 0.44 mg/kg × 2. Moreover, the “ED50 Streptococcus pyogenes Oral” value in the data set on Streptococcus pyogenes was found to be 69 mg/kg × 2. Further, the “ED50 Streptococcus pyogenes Subcutaneous” value in the data set on Streptococcus pyogenes (two doses subcutaneously) was found to be 0.05 mg/kg × 2. In addition, the LD50 in the data set “toxicity test (LD50)” worked out at 144 mg/kg. In data set [11], the “Size of Zone of Inhibition (mm) B. subtilis ATCC 6633, grown on minimal nutrient agar” value was found to be 32 mm and the “Size of Zone of Inhibition (mm) Bacillus subtilis ATCC 6633” value came to 20 mm.
Regarding `CCCCCCCCCCCCN[C@@H](Cc1c[nH]c2ccccc12)C(=O)N[C@@H](CC(N)=O)C(=O)N[C@@H](CC(=O)O)C(=O)N[C@@H]1C(=O)NCC(=O)N[C@@H](CCCN)C(=O)N[C@@H](CC(=O)O)C(=O)N[C@H](C)C(=O)N[C@@H](CC(=O)O)C(=O)NCC(=O)N[C@H](CO)C(=O)N[C@@H]([C@H](C)CC(=O)O)C(=O)N[C@@H](CC(=O)c2ccccc2N)C(=O)O[C@@H]1C` [Compound 22, NTrp -(n-dodecyl)-A-21978C nucleus], the “MIC Staphylococcus aureus X1.1” value in data set [3] came out at 0.5 µg/mL (≈ 0.306 µM). In data set [4], the “MIC Staphylococcus aureus V41” value was 1 µg/mL (≈ 0.612 µM). For the same compound, in [5], the “MIC Staphylococcus aureus X400” value was found to be 1 µg/mL (≈ 0.612 µM). For the same compound, in [6], the “MIC Staphylococcus epidermidis EPI1” value was found to be 1 µg/mL (≈ 0.612 µM). Also, in data set [7], the “MIC Staphylococcus epidermidis EPI2” value is 1 µg/mL (≈ 0.612 µM). Moreover, the “MIC Streptococcus pyogenes C203” value in data set [8] came to 0.5 µg/mL (≈ 0.306 µM). For the same compound, in data set [9], the “MIC Streptococcus pneumoniae Park I” value is 1 µg/mL (≈ 0.612 µM). The “MIC Streptococcus pneumoniae Group D X66” value in [10] was 4 µg/mL (≈ 2.45 µM). In addition, the “MIC Streptococcus pneumoniae Group 9960” value with Streptococcus Group 9960 was determined as 1 µg/mL (≈ 0.612 µM). Further, the “ED50 Staphylococcus aureus Subcutaneous” value in the data set with Staphylococcus aureus was determined as 1.25 mg/kg × 2. In the data set on Streptococcus pyogenes, the “ED50 Streptococcus pyogenes Oral” value was greater than 200 mg/kg × 2. Also, the LD50 in the data set “toxicity test (LD50)” is greater than 300 mg/kg.

What is called LD50 is the dose expected to kill half of the subjects tested. Low values mean a more toxic substance, high ones a less toxic substance.

For the origin of these results see patent US4537717A.
